Source: patent publication US12697313B2, “Methods of treating anemia using formoterol or a pharmaceutically acceptable salt thereof” (Dana-Farber Cancer Institute, Inc., priority 2022, dated 2026)
Entries after “also recorded” stand apart in the source; their conditions may differ.

Tests used:
[1] = system: erythroid progenitors / bone marrow cells of wild-type mice; assay: Gene expression (bulk RNA sequencing, qPCR) in FF-treated naive wild-type mice; assay type: in vivo
Text: Data represented as mean±SEM. All comparisons are done with respect to Vehicle (DMSO-treated).
This example describes the effects of formoterol fumarate treatment on expression of genes that have been linked to erythropoiesis including Klf9 (Ren et al., (2018) Yi Chuan. 40(11):998-1006 and Zhang et al., (2017) Blood 130(20):2161-2170), Klf13, Klf11 (Emery (2007) J. Cell. Biochem 100(4):1045-55), Hif1a (Wellmann, et al., (2004) J. Cell Sci. 117:175-94; Feng et al., (2022) Nature 610(7933):783-790; and Chen et al., (2019) N Engl J Med 381:1011-1022), Epas1 (Scortegagna et al. (2003) Blood 102:1634-40), Ddit4 (Yoshikawa (2023) Cancer Biomark. 37(4): 217-225), Cirbp, and Rora (Kim et al. (2008) Arterioscler Throm Vasc Biol 28(10):1796-802 and Chauvet et al., (2004) Biochem. J. 384:79-85). Differential gene expression in naïve wild-type mice was analyzed by bulk RNA sequencing according to an example workflow as depicted in FIG. 86.

[2] = system: MDS patient-derived bone marrow cells; assay: Liquid erythroid differentiation culture of MDS patient-derived bone marrow cells (ex vivo); assay type: cell-based, human; conditions: for erythroid differentiation (CD235a): n=40 MDS patients
Text: These findings prompted further testing to determine whether administration of FF in MDS patient-derived bone marrow (BM) samples improves erythroid differentiation in an ex vivo setting. To explore this, cells isolated from BM aspirates of de-identified MDS patients were procured. Next, the MDS patient-derived BM cells were placed in liquid erythroid differentiation culture, as previously described (Khajuria et al. (2018) Cell 173: 90-103), with or without FF treatment. […] To further validate this observation, the impact of FF from another vendor (Sigma) was tested on MDS patient-derived cells. […] Next, CD34+ progenitors were FACS-sorted from the MDS patient-derived BM aspirates and seeded in semi-solid methylcellulose culture media with vehicle (DMSO) or FF treatment. […] Therefore, the FDA-approved drug formoterol fumarate could be repurposed to reverse anemia in a range of hematological disorders.
CD34+ primary human hematopoietic stem and progenitor cells (HSPCs) were obtained from Fred-Hutchinson Cancer Research center, Seattle, USA and cultured, as previously described. Formoterol fumarate was purchased from Selleckchem (#S2020) and Sigma (#F9552), dissolved (in DMSO) and stored as per manufacturer's instructions, and used at the final working concentrations as indicated. Frozen BM aspirates from de-identified MDS patients were obtained using our IRB approved protocol (#21-632) from the Pasquarello tissue bank at DFCI.

[3] = system: NUP98-HOXD13 transgenic mice; assay: FF i.p. in MDS/AML mice (NUP98-HOXD13 transgenic); assay type: in vivo; conditions: 0.3 mg/kg thrice weekly i.p.
Protocol: FIG. 71A, FIG. 71B and FIG. 71C show FF treatment at a low dose of 0.3 mg/kg thrice weekly (i.p.) alleviates RBC parameters in PB of MDS/AML mice, such as RBCs, hemoglobin (Hb) and hematocrit (HCT%). * p<0.05, ** p <0.01, **** p<0.0001, ANOVA. n=5-7 mice per group. Veh: vehicle; LC: littermate control.

[4] = system: wild-type C57BL/6J mice; assay: FF daily i.p. in wild-type mice at steady-state (pilot study); assay type: in vivo
Protocol: The murine β2-adrenoreceptor has 87.08% similarity to the protein composition of the human analog. This encouraged further testing to determine whether formoterol fumarate (FF) treatment in wild-type mice under steady state or hemolytic anemia produces any alleviating effect in vivo. To address this, varying doses of FF 0.1-0.3-0.5-1.0 mg/kg or vehicle (0.3% DMSO in saline) were administered via intraperitoneal (i.p.) injection in 10-12 week old wild-type C57BL/6J mice daily for 3 weeks along with weekly submandibular cheek bleeding to analyze complete blood counts (CBC).
C57BL/6J mice were obtained from Jackson laboratories and were housed for at least 2 weeks at the Dana-Farber Cancer Institute (DFCI) animal resources facility before beginning experiments. All drug treatments have been mentioned in detail in the text.

[5] = system: wild-type mice; assay: FF oral gavage in wild-type mice at steady-state; assay type: in vivo
Text: N=5 mice per group. All comparisons were done w.r.t. vehicle treated (DMSO) controls.

[6] = system: APC KD HSPCs; assay: Erythropoiesis in APC knockdown HSPCs; assay type: cell-based, human; conditions: FIG. 46
Text: Primary human HSPCs were genome-edited, as previously described (Ghosh, S., Raundhal, M., Myers, S. A., Carr, S. A., Chen, X., Petsko, G. A., and Glimcher, L. H. (2022). Identification of RIOK2 as a master regulator of human blood cell development. Nat Immunol 23, 109-121).

[7] = system: primary human HSPCs; assay: Methylcellulose colony-formation assay, primary human HSPCs; assay type: cell-based; conditions: n=4 healthy donors; vs DMSO; FIG. 4
Protocol: Given the involvement of β2-AR in erythropoiesis, it was hypothesized that administration of long-acting selective β2-AR agonist FF might promote erythroid differentiation. To address this, primary human HSPCs were treated with varying doses of FF (Selleckchem). […] To ascertain if FF administration plays a role further upstream in the erythroid differentiation pathway, methylcellulose colony-formation assays were performed.
After genome editing, primary human HSPCs were washed twice with 1× PBS and mixed with semi-solid methylcellulose medium (H4034 StemCell Technologies) by brief vortexing. Cells were plated at a density of 2000 per well in a 6-well plate followed by incubation in a humidified chamber at 37° C. for 14 days. Imaging of the colonies was performed using EVOS M5000 Imaging system® (ThermoFisher Scientific). The colony-forming cells were then collected by triturating the wells using staining buffer and multi-color flow cytometry was performed as previously described (Li et al. (2014) Blood 124: 3636-3645).

[8] = system: mice; conditions: cited from earlier work

COc1ccc(C[C@@H](C)NC[C@H](O)c2ccc(O)c(NC=O)c2)cc1.O=C(O)/C=C/C(=O)O [FF, (E)-but-2-enedioic acid;N-[2-hydroxy-5-[(1R)-1-hydroxy-2-[[(2R)-1-(4-methoxyphenyl)propan-2-yl]amino]ethyl]phenyl]formamide]
HIF-1α expression in bone marrow cells ([1]; 0.5mg/kg ip 3× weekly, qPCR, FIG. 88A): enhances HIF-1α expression; also recorded: both significantly increased | VEGFA expression in bone marrow cells ([1]; 0.5mg/kg ip 3× weekly, qPCR, FIG. 88B): enhances; also recorded: both significantly increased | expression of Klf9, Klf13, Klf11, Hif1a, Epas1, Ddit4, Cirbp, Rora in erythroid progenitors from bone marrow ([1]; bulk RNA sequencing, FF-treated vs vehicle-treated, FIG. 87): increased in FF-treated mice | myelopoiesis/megakaryopoiesis ([2]; 40 MDS patient-derived cells, FIG. 9): does not affect myelopoiesis/megakaryopoiesis | erythroid differentiation (CD235a) ([2]; FF from Selleckchem, FIG. 8A): significantly enhanced erythroid differentiation in BM cells in the majority of MDS patients; also recorded: enhances erythroid differentiation in MDS patient-derived bone marrow cells | erythroid differentiation (CD235a) ([2]; FF from Sigma, FIG. 8B): boosted erythropoiesis in the majority of MDS patients; also recorded: enhances erythroid differentiation in MDS patient-derived bone marrow cells | RBC parameters (RBCs, Hb, HCT%) in PB ([3]; FIG. 71): elevates RBC parameters | platelets and WBCs in peripheral blood ([3]; FIG. 72A-72B): has no impact | apoptosis (Annexin V staining) in the bone marrow ([3]; FIG. 72C): has no impact | erythroid progenitors in the BM ([3]; FIG. 73A): elevates erythroid progenitors | GMP and MkP in the BM ([3]; FIG. 73B-73C): does not affect | body weights ([4]; 0.3-0.5 and 1.0 mg/kg daily i.p., FIG. 14A): mildly increased body weights of mice, but the values did not reach significance | RBC parameters (RBC numbers, HCT %, Hb) in peripheral blood ([4]; 14 days of daily i.p., FIG. 14C-14E): slightly elevated; also recorded: mildly increases RBC parameters | WBC and monocyte counts in peripheral blood ([4]; 14 days of daily i.p., FIG. 14F-14G): remained marginally affected; also recorded: does not affect white blood cell (WBC) or monocyte counts | mitochondrial biogenesis in PBMCs (MitoTracker staining) ([4]; all doses, day 14 of daily i.p., FIG. 14B): significantly enhanced mitochondrial biogenesis; also recorded: enhances mitochondrial biogenesis | tolerability (body weights, mobility, activeness, breathing patterns) ([4]; daily i.p. 0.1-0.3-0.5-1.0 mg/kg): well-tolerated | RBC parameters (HCT %, RBC numbers, Hb) in peripheral blood ([5]; 14 days of daily o.g., FIG. 48): increases RBC parameters | WBCs, monocytes and platelets in peripheral blood ([5]; 14 days of daily o.g., FIG. 49): does not affect WBC parameters | mitochondrial membrane potential (TMRE staining) in BMPs ([5]; 14 days of daily o.g., FIG. 50): increases viability and mitochondrial membrane potential | viability of bone marrow progenitors (BMPs) ([5]; 14 days of daily o.g., FIG. 50): increases viability and mitochondrial membrane potential | MEP and MkP ([5]; 14 days of daily o.g., FIG. 51): increases megakaryocyte erythroid progenitors (MEP) and megakaryocytic progenitors (MkP) | granulocyte monocyte progenitors (GMP) ([5]; 14 days of daily o.g., FIG. 51): does not affect granulocyte monocyte progenitors (GMP) | % change in body weights ([5]; o.g., steady state, FIG. 53): mildly increases body weights | erythropoiesis [6]: moderately rescues erythropoiesis | BFU-E and CFU-E formation [7]: significantly increased blast-forming unit-erythroid (BFU-E) and colony-forming unit-erythroid (CFU-E) formation; also recorded: enhances blast forming unit-erythroid (BFU-E) and colony forming unit-erythroid (CFU-E) formation | muscle structure and function after injury ([8]; literature): improve muscle structure and function after injury | muscle mass ([8]; mice (Gehrig et al. 2010; Ryall et al. 2008)): increase muscle mass
